These results are taken from PubChem BioAssay (NCI).

Assay in all cases: NCI tumour cell line growth inhibition, 48 h
Test [1] concerns HCT-15 colon.
Test [2] concerns HL-60(TB) leukemia.
In test [3] the test system is NCI-H23 lung.
For test [4], the system named is CCRF-CEM leukemia.
Test [5] has as its system SF-539 CNS.
In test [6] the test system is OVCAR-4 ovarian.
The test system of test [7] is NCI-H522 lung.
In test [8] the test system is KM12 colon.

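Following 48 hours of exposure in 96-well plates, responses at five concentrations were used to interpolate endpoints linearly. GI50 is the concentration that inhibits growth by half. The concentration for full growth arrest is given as TGI.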

As for `CC12C=CC(C)(O1)C1C2c2ccccc2S1(=O)=O` (stereo not drawn), the GI50 is 38.4 µM in test [1]; over 100 µM in test [2]; 46.6 µM in test [3]; 28.2 µM in test [4]; 85.4 µM in test [5]; 31.6 µM in test [6]. Further, the GI50 in test [7] is 33.6 µM; in test [8] it was over 100 µM. For the same compound, the TGI in test [1], in test [2], in test [3], in test [4], in test [5] and in test [6] was over 100 µM in each case. Besides, the TGI in test [7] and in test [8] was over 100 µM each time.

Turning to `COC(=O)[C@]12CC[C@@H](C)[C@H](C)[C@@H]1C1=CC[C@@H]3[C@@]4(C)C(c5ncon5)=C[C@@](C)(CO)C4=CC[C@@]3(C)[C@]1(C)CC2`, the GI50 in test [1] is 1.91 µM; in test [2] it was 2.13 µM; in test [3], 2.01 µM; in test [4] it was 1.89 µM; in test [5] it was 1.97 µM; in test [6] it was 3.1 µM. Besides, the GI50 in test [7] is 1.71 µM; in test [8], 1.98 µM. The TGI in test [1] is 4.08 µM; in test [2] it was 5.04 µM; in test [3] it was 4.52 µM; in test [4], 4.35 µM; in test [5], 3.89 µM; in test [6], 11.8 µM. Besides, the TGI in test [7] was found to be 3.57 µM; in test [8], 3.99 µM.

For `COC(=O)c1[nH]nc(-c2ccccc2)c1N1CCCCC1`, the GI50 is 36.2 µM in test [1]; over 100 µM in test [2]; 26.3 µM in test [3]; 72.9 µM in test [4]; 20.6 µM in test [5]; 86.7 µM in test [6]. The GI50 in test [7] is 36.8 µM; in test [8] it was 55.8 µM. The TGI in test [1] was over 100 µM; in test [2], over 100 µM; in test [3], 85.6 µM; in test [4] it was over 100 µM; in test [5] it was 57.4 µM; in test [6] it was over 100 µM. The TGI in test [7] and in test [8] was over 100 µM each time.

Regarding `O=C1C[C@@H](c2ccccc2)NCCCCN(O)CCCN1`, the TGI in test [1], in test [2], in test [3], in test [4], in test [5] and in test [6] was over 100 µM each time. The TGI in test [7] and in test [8] was over 100 µM throughout.

For `COc1cc2c(cc1OCCCCCCNC(=O)c1cc3ccccc3[nH]1)N=CC1CCCN1C2=O` (stereo not drawn), the GI50 was 32.1 µM in test [1]; 41.2 µM in test [2]; 51 µM in test [3]; 27.3 µM in test [4]; 17 µM in test [5]; 89.4 µM in test [6]. Besides, the GI50 in test [7] is 18.7 µM; in test [8], 34.8 µM. Further, the TGI in test [1] is over 100 µM; in test [2], over 100 µM; in test [3], over 100 µM; in test [4] it was over 100 µM; in test [5], 33.4 µM; in test [6], over 100 µM. Also, the TGI is 88.1 µM in test [7] and over 100 µM in test [8].

With `CC(C)[C@@H](C(=O)O[C@@H]1/C=C/C(=O)O[C@@H](C)CCC/C=C/[C@@H]2C[C@H](O)C[C@H]21)[N+](C)(C)C`, the GI50 in test [1], in test [2], in test [3], in test [4], in test [5] and in test [6] was over 100 µM in each case. For the same compound, the GI50 in test [7] and in test [8] was over 100 µM throughout. Further, the TGI in test [1], in test [2], in test [3], in test [4], in test [5] and in test [6] was over 100 µM throughout. Moreover, the TGI in test [7] and in test [8] was over 100 µM each time.

As to `c1ccc(-c2n(Cc3ccc4ccccc4n3)c3ccccc3[n+]2Cc2ccc3ccccc3n2)cc1`, the GI50 in test [1] is 2.23 µM; in test [2], 0.151 µM; in test [3], 0.262 µM; in test [4], 0.365 µM; in test [5], 0.354 µM; in test [6], 0.238 µM. In addition, the GI50 in test [7] is 0.356 µM; in test [8], 0.344 µM. Also, the TGI in test [1] amounted to 5.99 µM; in test [2], 0.62 µM; in test [3], 1.14 µM; in test [4], 2.81 µM; in test [5] it was 1.4 µM; in test [6], 1.82 µM. For the same compound, the TGI in test [7] was determined as 1.69 µM; in test [8] it was 1.3 µM.

As for `O=C1C2C(C(=O)[N]1[Hg][c]1ccccc1)C1(Cl)C(Cl)=C(Cl)C2(Cl)C1(Cl)Cl` (stereo not drawn), the GI50 in test [1] was 0.583 µM; in test [2] it was 2.51 µM; in test [3] it was 1.49 µM; in test [4], 0.365 µM; in test [6], 1.09 µM; in test [7] it was 0.203 µM. Further, the GI50 in test [8] is 8.7 µM. Also, the TGI in test [1] amounted to 2.2 µM; in test [2], 8.77 µM; in test [3] it was 3.32 µM; in test [4] it was 10.4 µM; in test [6], 4.15 µM; in test [7] it was 0.531 µM. The TGI in test [8] is 21.5 µM.

`Cc1cc(N(CCCNc2ccnc3cc(Cl)ccc23)Cc2cccs2)nc(Cl)n1`: the GI50 was 2.45 µM in test [1]; 1.3 µM in test [3]; 5.57 µM in test [4]; 7.02 µM in test [5]; 1.69 µM in test [6]; 2.9 µM in test [7]. Moreover, the GI50 in test [8] was 4.16 µM. Besides, the TGI in test [1] was 12.8 µM; in test [3] it was 16.7 µM; in test [4] it was over 100 µM; in test [5], 23.1 µM; in test [6], 14.6 µM; in test [7], 18.7 µM. The TGI in test [8] came to 17 µM.

As for `Cn1cc(-c2csc(-c3cn(CCN4CCOCC4)c4ccc(F)cc34)n2)c2cccnc21`, the GI50 in test [1] is 2.29 µM; in test [2], 2.52 µM; in test [3] it was 2.47 µM; in test [4], 3.07 µM; in test [5] it was 3.16 µM; in test [7], 2.11 µM. In addition, in test [8], the GI50 is 2.85 µM. Moreover, the TGI in test [1] was determined as 8.09 µM; in test [2], 6.87 µM; in test [3] it was 7.89 µM; in test [4], 9.18 µM; in test [5], 16.2 µM; in test [7], 6.63 µM. The TGI in test [8] turned out to be 11.1 µM.

With `CC(=O)NNC(=O)c1nn(-c2ccc(Cl)cc2)cc1OC(C)=O`, the GI50 in test [1] was 7.23 µM; in test [3], 22.2 µM; in test [4], 10.2 µM; in test [5] it was 21.9 µM; in test [6], 79.6 µM; in test [7] it was 35.5 µM. In test [8], the GI50 is 43.7 µM. For the same compound, the TGI in test [1] was over 100 µM; in test [3] it was 97.2 µM; in test [4], over 100 µM; in test [5], over 100 µM; in test [6], over 100 µM; in test [7] it was over 100 µM. The TGI in test [8] is over 100 µM.

In the case of `COC(=O)C1CC2(c3ccc(C)cc3)C(c3ccc(C)cc3)=C(c3ccc(C)cc3)C1(c1ccc(C)cc1)S2=O` (stereo not drawn), the GI50 in test [1] is over 100 µM; in test [3], over 100 µM; in test [5] it was over 100 µM; in test [6] it was 22.5 µM; in test [7] it was 96.3 µM; in test [8], over 100 µM. The TGI was over 100 µM in test [1]; over 100 µM in test [3]; over 100 µM in test [5]; 81.2 µM in test [6]; over 100 µM in test [7]; over 100 µM in test [8].

On to `C/C1=C\CC[C@@](C)(O)[C@H]2C[C@H](CC/C(C)=C/CC1)C1(CC1)C(=O)O2`, for which the GI50 in test [1] is 17.6 µM; in test [3], 38 µM; in test [4], 13.5 µM; in test [5] it was 17.1 µM; in test [6], 63.4 µM; in test [7] it was 23.1 µM. The GI50 in test [8] is 37.2 µM. The TGI in test [1] was 36.8 µM; in test [3] it was over 100 µM; in test [4], 39 µM; in test [5], 33.5 µM; in test [6] it was over 100 µM; in test [7], 62.9 µM. Further, the TGI in test [8] was over 100 µM.

As to `O=C(O)c1cn(C2CC2)c2cc(N3CCN(S(=O)(=O)c4ccc(Cl)c(Cl)c4)CC3)c(F)cc2c1=O`, the GI50 in test [1] is 3.3 µM; in test [2] it was 2.04 µM; in test [4], 2.61 µM; in test [5] it was 3.39 µM; in test [8] it was 3.62 µM. The TGI in test [1] was over 100 µM; in test [2], 5.17 µM; in test [4] it was over 100 µM; in test [5] it was over 100 µM; in test [8], over 100 µM.

On to `BrP(NC1CCCCCC1)(c1ccccc1)(c1ccccc1)c1ccccc1`, for which the TGI turned out to be 46.3 µM in test [1]; 13.8 µM in test [2]; 27.4 µM in test [3]; 29 µM in test [4]; 34.4 µM in test [5]; 8.5 µM in test [7]. The same compound showed a TGI in test [8] of 3.37 µM.
